Assay results from patent US20140315933A1, “CHEMICAL COMPOUNDS” (Pfizer Limited, priority 2013, published 2014).
Counter-ions that a name gives are not always drawn.

molecular target: T1, URAT-1 transporter (Homo sapiens, UniProt Q96S37); experiment: URAT-1 inhibitor activity: [14C]-uric acid uptake into CHO-URAT1(L)GFP#8 (CHO#8) cells, scintillation proximity; type: cell-based
T1 construct: expressed in transfected cells
Method in brief: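 CHO cells stably expressing human URAT1 long isoform C-terminally fused to eGFP, preincubated 1 hour in chloride-containing buffer, then 15 minutes with compound (0–10 μM, 0.25% DMSO) in chloride-free buffer pH 7.4. [14C]-uric acid at 30 nM final added; uptake read by scintillation proximity after three hours at room temperature, dark.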

T1 sequence (Q96S37 with tags, fused parts or gaps): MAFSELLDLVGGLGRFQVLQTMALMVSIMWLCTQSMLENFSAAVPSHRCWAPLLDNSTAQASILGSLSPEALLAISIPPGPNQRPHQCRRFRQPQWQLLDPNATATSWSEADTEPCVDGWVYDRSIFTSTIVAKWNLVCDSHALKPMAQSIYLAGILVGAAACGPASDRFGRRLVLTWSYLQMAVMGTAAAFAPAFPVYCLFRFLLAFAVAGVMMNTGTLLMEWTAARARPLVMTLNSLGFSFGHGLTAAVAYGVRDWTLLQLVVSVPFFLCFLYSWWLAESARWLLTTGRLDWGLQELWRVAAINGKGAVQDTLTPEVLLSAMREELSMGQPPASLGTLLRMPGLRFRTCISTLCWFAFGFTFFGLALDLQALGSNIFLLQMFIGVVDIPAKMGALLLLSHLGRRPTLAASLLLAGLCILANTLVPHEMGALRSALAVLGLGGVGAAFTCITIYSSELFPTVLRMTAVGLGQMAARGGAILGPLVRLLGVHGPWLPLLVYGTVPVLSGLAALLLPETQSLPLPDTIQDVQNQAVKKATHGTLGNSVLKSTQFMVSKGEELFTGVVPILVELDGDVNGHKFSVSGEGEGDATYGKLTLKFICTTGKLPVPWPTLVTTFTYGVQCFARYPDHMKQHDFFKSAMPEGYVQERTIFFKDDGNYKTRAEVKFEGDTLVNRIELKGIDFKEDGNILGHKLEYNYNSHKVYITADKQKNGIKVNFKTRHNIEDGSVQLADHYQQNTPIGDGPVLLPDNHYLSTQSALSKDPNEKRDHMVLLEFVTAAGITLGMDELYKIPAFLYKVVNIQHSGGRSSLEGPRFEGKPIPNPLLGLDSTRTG

IC50 [nM]	SMILES
3430	N#Cc1ccc(OC(F)F)c(Oc2cc(F)c(S(=O)(=O)Nc3ncns3)cc2Cl)c1 [Example 156, 5-chloro-4-[5-cyano-2-(difluoromethoxy)phenoxy]-2-fluoro-N-(1,2,4-thiadiazol-5-yl)benzenesulfonamide diethylamine salt]
2880	COc1cc(Cl)cc(Cl)c1Oc1cc(F)c(S(=O)(=O)Nc2nncs2)cc1Cl [Example 157, 5-chloro-4-(2,4-dichloro-6-methoxyphenoxy)-2-fluoro-N-(1,3,4-thiadiazol-2-yl)benzenesulfonamide diethylamine salt]
3210	O=S(=O)(Nc1cscn1)c1cc(Cl)c(Oc2cc(Cl)ccc2OC(F)F)cc1F [Example 158, 5-chloro-4-[5-chloro-2-(difluoromethoxy)phenoxy]-2-fluoro-N-(1,3-thiazol-4-yl)benzenesulfonamide]
499	O=S(=O)(Nc1cscn1)c1cc(Cl)c(Oc2ccc(Cl)cc2OC(F)F)cc1F [Example 159, 5-chloro-4-[4-chloro-2-(difluoromethoxy)phenoxy]-2-fluoro-N-(1,3-thiazol-4-yl)benzenesulfonamide]
347	O=S(=O)(Nc1cscn1)c1cc(Cl)c(Oc2cc(C(F)(F)F)ccc2I)cc1F [Example 160, 5-chloro-2-fluoro-4-[2-iodo-5-(trifluoromethyl)phenoxy]-N-(1,3-thiazol-4-yl)benzene-sulfonamide]
> 4850	O=S(=O)(Nc1cscn1)c1cc(Cl)c(Oc2ccc(C(F)(F)F)cc2Br)cc1F [Example 161, 4-[2-bromo-4-(trifluoromethyl)phenoxy]-5-chloro-2-fluoro-N-(1,3-thiazol-4-yl)benzenesulfonamide]
1080	CN(C)c1ccc(Oc2ccc(S(=O)(=O)Nc3nccs3)cc2C#N)cn1 [Example 186, 3-cyano-4-{[6-(dimethylamino)pyridin-3-yl]oxy}-N-(1,3-thiazol-2-yl)benzenesulfonamide]
> 6640	CNc1ccc(Oc2ccc(S(=O)(=O)Nc3nccs3)cc2C#N)cn1 [Example 187, 3-cyano-4-{[6-(methylamino)pyridin-3-yl]oxy}-N-(1,3-thiazol-2-yl)benzenesulfonamide]
688	CC(C)Nc1ccc(Oc2ccc(S(=O)(=O)Nc3nccs3)cc2C#N)cn1 [Example 188, 3-cyano-4-{[6-(propan-2-ylamino)pyridin-3-yl]oxy}-N-(1,3-thiazol-2-yl)benzenesulfonamide]
> 10000	CCNc1ccc(Oc2ccc(S(=O)(=O)Nc3nccs3)cc2C#N)cn1 [Example 189, 3-cyano-4-{[6-(ethylamino)pyridin-3-yl]oxy}-N-(1,3-thiazol-2-yl)benzenesulfonamide]
> 10000	N#Cc1cc(S(=O)(=O)Nc2nccs2)ccc1Oc1ccc(OCC(F)(F)F)nc1 [Example 190, 3-cyano-N-(1,3-thiazol-2-yl)-4-{[6-(2,2,2-trifluoroethoxy)pyridin-3-yl]oxy}benzenesulfonamide]
> 10000	CCOc1ccc(Oc2ccc(S(=O)(=O)Nc3nccs3)cc2C#N)cn1 [Example 191, 3-cyano-4-[(6-ethoxypyridin-3-yl)oxy]-N-(1,3-thiazol-2-yl)benzenesulfonamide]
> 10000	CC(C)Oc1ccc(Oc2ccc(S(=O)(=O)Nc3nccs3)cc2C#N)cn1 [Example 192, 3-cyano-4-{[6-(propan-2-yloxy)pyridin-3-yl]oxy}-N-(1,3-thiazol-2-yl)benzenesulfonamide]
77	N#Cc1cc(S(=O)(=O)Nc2nccs2)ccc1Oc1ccc(F)c(F)c1 [Example 243, 3-cyano-4-(3,4-difluorophenoxy)-N-(1,3-thiazol-2-yl)benzenesulfonamide]
365	N#Cc1ccc(Oc2ccc(S(=O)(=O)Nc3ncc(F)s3)cc2C#N)cc1Cl [Example 244, 4-(3-chloro-4-cyanophenoxy)-3-cyano-N-(5-fluoro-1,3-thiazol-2-yl)benzenesulfonamide]
2000	N#Cc1cc(Oc2ccc(S(=O)(=O)Nc3ncc(F)s3)cc2C#N)ccc1F [Example 245, 3-cyano-4-(3-cyano-4-fluorophenoxy)-N-(5-fluoro-1,3-thiazol-2-yl)benzenesulfonamide]
699	N#Cc1cc(Oc2ccc(S(=O)(=O)Nc3nccs3)cc2C#N)ccc1F [Example 246, 3-cyano-4-(3-cyano-4-fluorophenoxy)-N-(1,3-thiazol-2-yl)benzenesulfonamide]
450	N#Cc1ccc(Oc2ccc(S(=O)(=O)Nc3ncc(Cl)s3)cc2C#N)cc1Cl [Example 247, 4-(3-chloro-4-cyanophenoxy)-N-(5-chloro-1,3-thiazol-2-yl)-3-cyanobenzenesulfonamide]

Further lines, the compound ahead of its results:

SMILES	IC50 [nM]
N#Cc1cc(S(=O)(=O)Nc2ncc(F)s2)ccc1Oc1cc(C(F)(F)F)ccc1F [Example 134, 3-cyano-N-(5-fluoro-1,3-thiazol-2-yl)-4-[2-fluoro-5-(trifluoromethyl)phenoxy]benzenesulfonamide]	718
CC(C)(O)c1cccc(Oc2ccc(S(=O)(=O)Nc3ncc(F)s3)cc2C#N)c1 [Example 135, 3-cyano-N-(5-fluoro-1,3-thiazol-2-yl)-4-[3-(2-hydroxypropan-2-yl)phenoxy]benzenesulfonamide]	1730
N#Cc1cc(S(=O)(=O)Nc2ncc(F)s2)ccc1Oc1cc(C(F)(F)F)ccc1Cl [Example 136, 4-[2-chloro-5-(trifluoromethyl)phenoxy]-3-cyano-N-(5-fluoro-1,3-thiazol-2-yl)benzenesulfonamide]	464
CC(C)(C)c1cccc(Oc2ccc(S(=O)(=O)Nc3ncc(F)s3)cc2C#N)c1 [Example 137, 4-(3-tert-butylphenoxy)-3-cyano-N-(5-fluoro-1,3-thiazol-2-yl)benzenesulfonamide]	> 8950
N#Cc1cc(S(=O)(=O)Nc2ncc(F)s2)ccc1Oc1cc(C(F)(F)F)cc(C(F)(F)F)c1 [Example 138, 4-[3,5-bis(trifluoromethyl)phenoxy]-3-cyano-N-(5-fluoro-1,3-thiazol-2-yl)benzenesulfonamide]	3470
N#Cc1cc(S(=O)(=O)Nc2ncc(F)s2)ccc1Oc1cc(F)cc(C(F)(F)F)c1 [Example 139, 3-cyano-N-(5-fluoro-1,3-thiazol-2-yl)-4-[3-fluoro-5-(trifluoromethyl)phenoxy]benzenesulfonamide]	3380
N#Cc1cc(S(=O)(=O)Nc2ncc(F)s2)ccc1Oc1ccc(C#N)c(C(F)(F)F)c1 [Example 140, 3-cyano-4-[4-cyano-3-(trifluoromethyl)phenoxy]-N-(5-fluoro-1,3-thiazol-2-yl)benzenesulfonamide]	> 7300
N#Cc1cc(S(=O)(=O)Nc2ncc(F)s2)ccc1Oc1ccc(Cl)c(C(F)(F)F)c1 [Example 141, 4-[4-chloro-3-(trifluoromethyl)phenoxy]-3-cyano-N-(5-fluoro-1,3-thiazol-2-yl)benzenesulfonamide]	737
CCc1cc(Oc2ccc(S(=O)(=O)Nc3ncc(F)s3)cc2C#N)ccc1Cl [Example 142, 4-(4-chloro-3-ethylphenoxy)-3-cyano-N-(5-fluoro-1,3-thiazol-2-yl)benzenesulfonamide]	540
N#Cc1cc(S(=O)(=O)Nc2ncc(F)s2)ccc1Oc1ccc(F)c(C(F)(F)F)c1 [Example 143, 3-cyano-N-(5-fluoro-1,3-thiazol-2-yl)-4-[4-fluoro-3-(trifluoromethyl)phenoxy]benzenesulfonamide]	566
N#Cc1cc(S(=O)(=O)Nc2ncc(F)s2)ccc1Oc1ccc(CCO)cc1I [Example 145, 3-cyano-N-(5-fluoro-1,3-thiazol-2-yl)-4-[4-(2-hydroxyethyl)-2-iodophenoxy]benzene-sulfonamide]	803
N#Cc1cc(S(=O)(=O)Nc2ncc(F)s2)ccc1Oc1ccc(CCO)cc1 [Example 146, 3-cyano-N-(5-fluoro-1,3-thiazol-2-yl)-4-[4-(2-hydroxyethyl)phenoxy]benzenesulfonamide]	> 10000
N#Cc1cc(S(=O)(=O)Nc2ncc(F)s2)ccc1Oc1ccc(CCCO)cc1 [Example 147, 3-cyano-N-(5-fluoro-1,3-thiazol-2-yl)-4-[4-(3-hydroxypropyl)phenoxy]benzenesulfonamide]	> 10000
N#Cc1cc(S(=O)(=O)Nc2cscn2)ccc1Oc1ccc(Cl)cc1OC(F)F [Example 148, 4-[4-chloro-2-(difluoromethoxy)phenoxy]-3-cyano-N-(1,3-thiazol-4-yl)benzenesulfonamide]	118
O=S(=O)(Nc1cscn1)c1cc(Cl)c(Oc2ccc(F)cc2I)cc1F [Example 149, 5-chloro-2-fluoro-4-(4-fluoro-2-iodophenoxy)-N-(1,3-thiazol-4-yl)benzenesulfonamide]	494
COc1cc(Cl)ccc1Oc1cc(F)c(S(=O)(=O)Nc2nncs2)cc1Cl [Example 150, 5-chloro-4-(4-chloro-2-methoxyphenoxy)-2-fluoro-N-(1,3,4-thiadiazol-2-yl)benzenesulfonamide]	2510
O=S(=O)(Nc1ncns1)c1cc(Cl)c(Oc2ccc(Cl)cc2OC(F)(F)F)cc1F [Example 151, 5-chloro-4-[4-chloro-2-(trifluoromethoxy)phenoxy]-2-fluoro-N-(1,2,4-thiadiazol-5-yl)benzenesulfonamide]	508
O=S(=O)(Nc1nncs1)c1cc(Cl)c(Oc2ccc(Cl)cc2OC(F)F)cc1F [Example 152, 5-chloro-4-[4-chloro-2-(difluoromethoxy)phenoxy]-2-fluoro-N-(1,3,4-thiadiazol-2-yl)benzenesulfonamide]	> 10000
COc1cc(Cl)ccc1Oc1cc(F)c(S(=O)(=O)Nc2ncns2)cc1Cl [Example 154, 5-chloro-4-(4-chloro-2-methoxyphenoxy)-2-fluoro-N-(1,2,4-thiadiazol-5-yl)benzenesulfonamide]	1630
N#Cc1ccc(Oc2cc(F)c(S(=O)(=O)Nc3ncns3)cc2Cl)c(OC(F)F)c1 [Example 155, 5-chloro-4-[4-cyano-2-(difluoromethoxy)phenoxy]-2-fluoro-N-(1,2,4-thiadiazol-5-yl)benzenesulfonamide diethylamine salt]	> 7250
